Measured values: patent publication US20010001104A1, “Thienopyridine compounds, their production and use” (priority 1998, published 2001)
Read-outs that look alike come from different tables or passages of the source.

Columns and labels:
human GnRH receptor = biological target: T1, human GnRH receptor (Homo sapiens, UniProt P30968); test: 125I-leuprorelin binding inhibition, CHO cell membrane fraction containing human GnRH receptor
T1 construct: expressed in transfected cells; host or cells: CHO (Chinese hamster ovarian) cells
T1 sequence (P30968 1-328): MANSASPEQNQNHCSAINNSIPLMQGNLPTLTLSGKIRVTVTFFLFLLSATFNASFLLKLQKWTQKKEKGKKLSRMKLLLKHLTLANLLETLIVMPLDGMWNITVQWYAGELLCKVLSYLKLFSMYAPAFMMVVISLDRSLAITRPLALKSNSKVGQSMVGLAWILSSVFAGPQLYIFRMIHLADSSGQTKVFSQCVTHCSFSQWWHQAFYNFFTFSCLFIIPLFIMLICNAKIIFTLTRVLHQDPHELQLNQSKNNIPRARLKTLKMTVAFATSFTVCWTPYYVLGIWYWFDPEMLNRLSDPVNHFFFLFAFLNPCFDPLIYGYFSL
Protocol: After stirring, 10 μl of 0.001% H2O2 was added, and a reaction was carried out at room temperature for 20 minutes. By adding 700 μl of a 0.05% TFA (trifluoroacetic acid) solution, the reaction was stopped, followed by purification by reversed-phase HPLC. […] To the cell pellet, 10 ml of a cell homogenate buffer (10 mM NaHCO3, 5 mM EDTA, pH 7.5) was added, followed by homogenization using the Polytron homogenizer. After centrifugation at 400×g for 15 minutes, the supernatant was transferred to an ultracentrifugation tube and centrifuged at 100,000×g for 1 hour to yield a membrane fraction precipitate. This precipitate was suspended in 2 ml of an assay buffer and centrifuged at 100,000×g for 1 hour. The membrane fraction recovered as a precipitate was again suspended in 20 ml of the assay buffer, dispensed, and stored at −80° C. before use upon thawing. […] Where the rat or bovine pituitary anterior lobe membrane fraction was used, the reaction was conducted at 4° C. for 90 minutes. Where the membrane fraction of the CHO with human GnRH receptors expressed was used, the reaction was carried out at 25° C. for 60 minutes. After each reaction, the reaction mixture was aspirated and filtered through a polyethyleneimine-treated Whatman glass filter (GF-F). […] The expression (TB-SB)/(TB-NSB)×100 (where SB= radioactivity with the compound added, TB=maximum bound radioactivity, NSB=nonspecifically bound radioactivity) was calculated to find the binding inhibition rate (%) of each test compound.

GnRH receptors = biological target: T2, GnRH receptors (Rattus norvegicus, UniProt P30969); test: 125I-leuprorelin binding inhibition, rat pituitary anterior lobe membrane fraction; conditions: for IC50: Hill plot; for inhibition at 1 µM: read-out: binding inhibition rate (%) Rat (1 μM)
T2 construct: Anterior lobes of the pituitary glands were isolated from forty Wistar rats; from tissue; host or cells: anterior lobe of the pituitary gland, male Wistar rats
T2 sequence (P30969 1-327): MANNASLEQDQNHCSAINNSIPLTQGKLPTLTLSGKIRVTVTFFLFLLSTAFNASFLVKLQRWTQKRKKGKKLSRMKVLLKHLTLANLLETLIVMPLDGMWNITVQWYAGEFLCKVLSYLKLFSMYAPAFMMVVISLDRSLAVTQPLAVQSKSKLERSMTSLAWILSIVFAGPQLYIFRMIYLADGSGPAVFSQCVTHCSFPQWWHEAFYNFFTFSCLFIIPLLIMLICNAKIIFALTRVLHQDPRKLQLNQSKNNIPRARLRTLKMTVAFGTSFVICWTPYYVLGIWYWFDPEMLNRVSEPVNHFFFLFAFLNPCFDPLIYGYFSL
Protocol: After stirring, 10 μl of 0.001% H2O2 was added, and a reaction was carried out at room temperature for 20 minutes. By adding 700 μl of a 0.05% TFA (trifluoroacetic acid) solution, the reaction was stopped, followed by purification by reversed-phase HPLC. […] Anterior lobes of the pituitary glands were isolated from forty Wistar rats (8 weeks old, male), and washed with ice-cooled homogenate buffer [25 mM Tris (tris(hydroxymethyl)aminomethane)-HCl, 0.3M sucrose, 1 mM EGTA (glycol-etherdiamine-N,N,N′,N′-tetraacetic acid), 0.25 mM PMSF (phenylmethylsulfonyl fluoride), 10 U/ml aprotinin, […] pepstatin, […] leupeptin, […], 0.03% sodium azide, pH 7.5]. The pituitary tissue was floated in 2 ml of the homogenate buffer and homogenized using a Polytron homogenizer. The homogenate was centrifuged at 700×g for 15 minutes. The supernatant was taken in an ultracentrifuge tube and centrifuged at 100, 000×g for 1 hour to provide a membrane fraction pellet. This pellet was suspended in 2 ml of assay buffer [25 mM Tris-HCl, 1 mM EDTA (ethylenediaminetetraacetic acid), 0.1% BSA (bovine serum albumin), 0.25 mM PMSF, 1 mg/ml pepstatin, 20 mg/ml leupeptin, […], 0.03% sodium azide, pH 7.5) and the suspension was centrifuged at 100,000×g for 1 hour. The membrane fraction recovered as a pellet was resuspended in 10 ml of assay buffer, divided into portions, preserved at −80° C. and thawed when needed. […] Where the rat or bovine pituitary anterior lobe membrane fraction was used, the reaction was conducted at 4° C. for 90 minutes. Where the membrane fraction of the CHO with human GnRH receptors expressed was used, the reaction was carried out at 25° C. for 60 minutes. After each reaction, the reaction mixture was aspirated and filtered through a polyethyleneimine-treated Whatman glass filter (GF-F). […] The expression (TB-SB)/(TB-NSB)×100 (where SB= radioactivity with the compound added, TB=maximum bound radioactivity, NSB=nonspecifically bound radioactivity) was calculated to find the binding inhibition rate (%) of each test compound.

blood LH = test: Suppression of blood LH in castrated monkeys; format: in vivo, cynomolgus monkeys (Macaca fascicularis); conditions: castrated male cynomolgus monkeys; 30 mg/kg oral; values only in FIG. 1
Protocol: The compound produced in Example 1-2 was orally administered to castrated male cynomolgus monkeys (Macaca fascicularis), and blood LH was quantified. The male cynomolgus monkeys, used at 3 years 8 months to 7 years 7 months of age at time of experimentation, had been castrated more than half a year prior to the examination. Test animals [n =2; compound (1) and compound (2)] were given 30 mg/kg (3 ml/kg) of the compound suspended in 0.5% methyl cellulose at a final concentration of 1% by oral administration, and control animals [n=3; control (1), control (2) and control (3)] were given 3 ml/kg of the 0.5% methyl cellulose dispersant alone by oral administration. […]
Plasma LH concentrations were determined by a bioassay using mouse testicular cells. […] The testosterone concentration in the culture supernatant was determined by a radioimmunoassay (CIS Diagnostics Company), and the LH concentration in the test monkey plasma was calculated from the standard curve for the standard equine LH.
For the control (1), the control (2), and the control (3), changes over time in the LH concentrations in each animal are expressed as percent ratios to the respective reference values, which comprise the LH concentrations immediately before administration in each control animal (cynomolgus monkey). […]

[1] = rat pituitary anterior lobe membrane fraction, 125I-leuprorelin

Row | Compound | melting point [°C] | other results
1 | CONC(=O)Nc1ccc(-c2sc3c(c2CN(C)Cc2ccccc2)c(=O)c(C(=O)C(C)C)cn3Cc2c(F)cccc2F)cc1.Cl | 225 to 230 | –
2 | C[C@H](CO)C(=O)Nc1ccc(-c2sc3c(c2CN(C)Cc2ccccc2)c(=O)c(C(=O)c2ccccc2)cn3Cc2c(F)cccc2F)cc1 [Example 23] | 145 to 146 | –
3 | CC(C)C(=O)c1cn(Cc2c(F)cccc2F)c2sc(-c3ccc(NC(=O)C4(O)CC4)cc3)c(CN(C)Cc3ccccc3)c2c1=O.Cl | 220 to 222 | –
4 | CN(Cc1ccccc1)Cc1c(-c2ccc(NC(=O)C3(O)CC3)cc2)sc2c1c(=O)c(C(=O)c1ccccc1)cn2Cc1c(F)cccc1F [Example 21] | 186 to 188 | –
5 | CN(Cc1ccccc1)Cc1c(-c2ccc(NC(=O)C(C)(C)O)cc2)sc2c1c(=O)c(C(=O)c1ccccc1)cn2Cc1c(F)cccc1F [Example 22, 3-(N-benzyl-N-methylaminomethyl)-5-benzoyl-7-(2,6-difluorobenzyl)-4,7-dihydro-2-[4-(2-hydroxy-2-methylpropionylamino)phenyl]-4-oxothieno[2,3-b]pyridine] | 222 to 223 | –
6 | CC(C)C(=O)Nc1ccc(-c2sc3c(c2CN(C)Cc2ccccc2)c(=O)c(C(=O)C(C)(C)O)cn3Cc2c(F)cccc2F)cc1 [Example 7, 3-(N-benzyl-N-methylaminomethyl)-4,7-dihydro-7-(2,6-difluorobenzyl)-2-(4-isobutyrylaminophenyl)-5-(2-hydroxy-2-methylpropionyl)-4-oxothieno[2,3-b]pyridine] | 170 to 172 | –
7 | CC(C)C(=O)c1cn(Cc2c(F)cccc2F)c2sc(-c3ccc(NC(=O)C4CC4)cc3)c(CN(C)Cc3ccccc3)c2c1=O.Cl [Example 1-2, 3-(N-benzyl-N-methylaminomethyl)-4,7-dihydro-5-isobutyryl-7-(2,6-difluorobenzyl)-2-(4-cyclopropanecarbonylaminophenyl)-4-oxothieno[2,3-b]pyridine Hydrochloride] | 254 to 256 | inhibition at 20 µM (human GnRH receptor; 20 μM compound, CHO membrane fraction with human GnRH receptors, 125I-leuprorelin, 25° C., 60 minutes, read-out: binding inhibition rate (%) Human (20 μM)): 102%; IC50 (human GnRH receptor; CHO membrane fraction with human GnRH receptors, 125I-leuprorelin, Hill plot, read-out: IC50 value (μM) Human): 0.0001 µM; inhibition at 1 µM (GnRH receptors; 1 μM compound, rat pituitary anterior lobe membrane fraction, 125I-leuprorelin, 4° C., 90 minutes): 96%; IC50 (GnRH receptors; [1]): 0.06 µM; plasma LH concentrations (blood LH): suppression of plasma LH concentrations

Now from value to compound, other results behind:

Row | melting point [°C] | Compound | other results
8 | 161 to 162 | CC(C)C(=O)c1cn(Cc2c(F)cccc2F)c2sc(-c3ccc(NC(=O)C(C)CO)cc3)c(CN(C)Cc3ccccc3)c2c1=O (stereo not shown) [Example 3, 3-(N-benzyl-N-methylaminomethyl)-4,7-dihydro-5-isobutyryl-7-(2,6-difluorobenzyl)-2-[4-(3-hydroxy-2-methylpropionylamino)phenyl]-4-oxothieno[2,3-b]pyridine] | IC50 (human GnRH receptor): 0.0002 µM; IC50 (GnRH receptors; [1]): 0.6 µM; inhibition at 1 µM (GnRH receptors): 62%
9 | 178 to 180 | CC(C)C(=O)c1cn(Cc2c(F)cccc2F)c2sc(-c3ccc(NC(=O)C(C)(C)O)cc3)c(CN(C)Cc3ccccc3)c2c1=O [Example 11-1, 4,7-dihydro-2-[4-(2-hydroxy-2-methylpropionylamino)phenyl]-7-(2,6-difluorobenzyl)-3-(N-benzyl-N-methylaminomethyl)-5-isobutyryl-4-oxothieno[2,3-b]pyridine] | –
10 | 161 to 162 | CC(C)C(=O)c1cn(Cc2c(F)cccc2F)c2sc(-c3ccc(NC(=O)[C@H](C)CO)cc3)c(CN(C)Cc3ccccc3)c2c1=O [Example 10-1, (R)-4,7-dihydro-2-[4-(3-hydroxy-2-methylpropionylamino)phenyl]-7-(2,6-difluorobenzyl)-3-(N-benzyl-N-methylaminomethyl)-5-isobutyryl-4-oxothieno[2,3-b]pyridine] | –
11 | 214 to 216 | CC(C)C(=O)c1cn(Cc2c(F)cccc2F)c2sc(-c3ccc(NC(=O)[C@H](C)CO)cc3)c(CN(C)Cc3ccccc3)c2c1=O.Cl | –
12 | 213 to 215 | CC(C)C(=O)c1cn(Cc2c(F)cccc2F)c2sc(-c3ccc(NC(=O)C(C)(C)O)cc3)c(CN(C)Cc3ccccc3)c2c1=O.Cl | –
13 | 197 to 199 | CC(C)C(=O)c1cn(Cc2c(F)cccc2F)c2sc(-c3ccc(NC(=O)CO)cc3)c(CN(C)Cc3ccccc3)c2c1=O.Cl | –
14 | 216 to 218 | CC(C)C(=O)c1cn(Cc2c(F)cccc2F)c2sc(-c3ccc(NC(=O)CC(C)(C)O)cc3)c(CN(C)Cc3ccccc3)c2c1=O.Cl | –
